This is an account of results in PMC3724473 (Biosensors & bioelectronics, 2012).

Experiment [1] has as its target T1, CotA / bilirubin oxidase (BOD) from Bacillus pumilus (Bacillus pumilus, UniProt A8FAG9). In words: spectrophotometric at […] nm. The settings on record: optimal pH (assay pH 7.2, 50 mM sodium phosphate), 37 °C. It counts as biochemical.
The target in experiment [2] is T1, CotA / bilirubin oxidase (BOD) from Bacillus pumilus. As to the kind of experiment: spectrophotometric oxidation at […] nm, Michaelis-Menten fit. The settings on record: optimal pH (assay pH 6.8), 37 °C, McIlvaine citrate-phosphate buffer. The class given is biochemical.

Usually Km stands for the substrate concentration at which the rate is half of its maximum. In the case of `C=CC1=C(C)/C(=C/c2[nH]c(Cc3[nH]c(/C=C4\NC(=O)C(C)=C4C=C)c(C)c3CCC(=O)O)c(CCC(=O)O)c2C)NC1=O` [unconjugated bilirubin], the Km in experiment [1] was 22 µM.

As for `COc1cccc(OC)c1O` [2,6-DMP, 2,6-dimethoxyphenol], the Km in experiment [2] was 822 µM.
